Counter-ions that a name gives are not always drawn.
Tests used:
tumour = assay: Dosimetry with regard to the tumour (MIRD programme, extrapolated to ^131I); details: for Effective period: extrapolated to 131I labelling; for Biological period: from biodistribution data
[1] = Elimination of the molecules: cumulative urinary and faecal excretion 0-72 hours; type: in vivo, mouse; details: cumulative excretion 0-72 hours; for Faecal elimination 0-72 hours (Faeces) / Urinary elimination 0-72 hours (Urine): mice in metabolic cages; for Urinary and faecal elimination 0-72 hours (Total): urine + faeces
[2] = test system: grafted B16 F0 murine melanoma tumour; assay: Biodistribution of the ^125I-labelled molecules in the melanoma-bearing mouse (autoradiography of whole-body sections); details: for Concentration of radioactivity, B 16 (tumour), Mean / Concentration of radioactivity, Ic (intestinal contents), Mean / Concentration of radioactivity, Sc (stomach contents), Mean / Concentration of radioactivity, blood (measured in the heart cavity), Mean / Concentration of radioactivity, brain, Mean / Concentration of radioactivity, kidney, Mean / Concentration of radioactivity, liver, Mean / Concentration of radioactivity, lungs, Mean / Concentration of radioactivity, muscle (skeletal muscle), Mean / Concentration of radioactivity, spleen, Mean / Concentration of radioactivity, uvea (pigmented tissues of the eye), Mean / Concentration of radioactivity, pancreas, Mean: ^125I-labelled compound; for Biodistribution, Mean, B 16: B 16 tumour
Method: The distribution of the radioactivity of the various compounds in the body (tumour and other organs) is quantified using an Ambis 4000 image analyzer on sections of whole animals. […] All the in vivo experimentation is carried out within the context defined by French legislation relating to animal experimentation.
The B16 F0 melanoma cells are provided by the ATCC and cultured in monolayers in culture medium (MEM, Invitrogen) supplemented with 10% foetal calf serum and antibiotics. The cultures are maintained by subculturing after trypsinization. The cells of the first passages are frozen and stored in liquid nitrogen. For the transplanting, the cells in culture at confluence are detached by trypsinization and washed with phosphate buffer (PBS).
The distribution of the radioactivity present in the sections is analyzed using an AMBIS 4000 analyzer (Scanalytics, CSPI, San Diego, Calif.), which is a proportional counter with a multiwire chamber validated and calibrated beforehand for the monitoring of iodine in the mouse. The measurements require acquisition times of 1000 minutes. […] The value of radioactivity per unit of surface area (cpm/mm^2) is converted to concentration (kBq/g) and expressed as percentage of the injected dose/g of tissue (% ID/g).

CCN(CC)CCNC(=O)c1nc2ccccn2c1I [compound 16, N-(2-diethylaminoethyl)-3-iodoimidazo[1,2-a]pyridine-2-carboxamide dihydrochloride]
Effective period (tumour): 7.5 h | Biological period (tumour): 7.8 hours | Faecal elimination 0-72 hours (Faeces) [1]: 24.0% | Urinary and faecal elimination 0-72 hours (Total) [1]: 76.6% | Urinary elimination 0-72 hours (Urine) [1]: 52.6% | Concentration of radioactivity, B 16 (tumour), Mean ([2]; 1 H after i.v. administration): 2.96 % ID/g | Concentration of radioactivity, Ic (intestinal contents), Mean ([2]; 1 H after i.v. administration): 58.60 % ID/g | Concentration of radioactivity, Sc (stomach contents), Mean ([2]; 1 H after i.v. administration): 24.51 % ID/g | Concentration of radioactivity, blood (measured in the heart cavity), Mean ([2]; 1 H after i.v. administration): 2.20 % ID/g | Concentration of radioactivity, brain, Mean ([2]; 1 H after i.v. administration): 0.33 % ID/g | Concentration of radioactivity, kidney, Mean ([2]; 1 H after i.v. administration): 7.12 % ID/g | Concentration of radioactivity, liver, Mean ([2]; 1 H after i.v. administration): 4.86 % ID/g | Concentration of radioactivity, lungs, Mean ([2]; 1 H after i.v. administration): 6.48 % ID/g | Concentration of radioactivity, muscle (skeletal muscle), Mean ([2]; 1 H after i.v. administration): 1.10 % ID/g | Concentration of radioactivity, spleen, Mean ([2]; 1 H after i.v. administration): 8.16 % ID/g | Concentration of radioactivity, uvea (pigmented tissues of the eye), Mean ([2]; 1 H after i.v. administration): 28.30 % ID/g | Concentration of radioactivity, B 16 (tumour), Mean ([2]; 3 H after i.v. administration): 5.40 % ID/g | Concentration of radioactivity, Ic (intestinal contents), Mean ([2]; 3 H after i.v. administration): 52.06 % ID/g | Concentration of radioactivity, Sc (stomach contents), Mean ([2]; 3 H after i.v. administration): 30.71 % ID/g | Concentration of radioactivity, blood (measured in the heart cavity), Mean ([2]; 3 H after i.v. administration): 3.93 % ID/g | Concentration of radioactivity, brain, Mean ([2]; 3 H after i.v. administration): 0.36 % ID/g | Concentration of radioactivity, kidney, Mean ([2]; 3 H after i.v. administration): 5.04 % ID/g | Concentration of radioactivity, liver, Mean ([2]; 3 H after i.v. administration): 2.56 % ID/g | Concentration of radioactivity, lungs, Mean ([2]; 3 H after i.v. administration): 3.38 % ID/g | Concentration of radioactivity, muscle (skeletal muscle), Mean ([2]; 3 H after i.v. administration): 1.30 % ID/g | Concentration of radioactivity, spleen, Mean ([2]; 3 H after i.v. administration): 12.67 % ID/g | Concentration of radioactivity, uvea (pigmented tissues of the eye), Mean ([2]; 3 H after i.v. administration): 16.60 % ID/g | Concentration of radioactivity, B 16 (tumour), Mean ([2]; 6 H after i.v. administration): 9.87 % ID/g | Concentration of radioactivity, Ic (intestinal contents), Mean ([2]; 6 H after i.v. administration): 26.14 % ID/g | Concentration of radioactivity, Sc (stomach contents), Mean ([2]; 6 H after i.v. administration): 48.21 % ID/g | Concentration of radioactivity, brain, Mean ([2]; 6 H after i.v. administration): 0.65 % ID/g | Concentration of radioactivity, kidney, Mean ([2]; 6 H after i.v. administration): 4.47 % ID/g | Concentration of radioactivity, lungs, Mean ([2]; 6 H after i.v. administration): 4.56 % ID/g | Concentration of radioactivity, uvea (pigmented tissues of the eye), Mean ([2]; 6 H after i.v. administration): 22.16 % ID/g | Concentration of radioactivity, B 16 (tumour), Mean ([2]; 24 H after i.v. administration): 5.22 % ID/g | Concentration of radioactivity, uvea (pigmented tissues of the eye), Mean ([2]; 24 H after i.v. administration): 11.17 % ID/g | Concentration of radioactivity, Sc (stomach contents), Mean ([2]; 72 H after i.v. administration): 3.42 % ID/g | Concentration of radioactivity, uvea (pigmented tissues of the eye), Mean ([2]; 72 H after i.v. administration): 2.41 % ID/g

CCN(CC)CCNC(=O)c1ccc2cc(I)ccc2c1 [compound 3, N-(2-diethylaminoethyl)-6-iodo-2-naphthamide hydrochloride]
Effective period (tumour): 21.4 h | Biological period (tumour): 24.0 hours | Faecal elimination 0-72 hours (Faeces) [1]: 26.7% | Urinary and faecal elimination 0-72 hours (Total) [1]: 70.6% | Urinary elimination 0-72 hours (Urine) [1]: 43.7% | Concentration of radioactivity, B 16 (tumour), Mean ([2]; 1 H after i.v. administration): 12.99 % ID/g | Concentration of radioactivity, Ic (intestinal contents), Mean ([2]; 1 H after i.v. administration): 7.82 % ID/g | Concentration of radioactivity, Sc (stomach contents), Mean ([2]; 1 H after i.v. administration): 27.82 % ID/g | Concentration of radioactivity, blood (measured in the heart cavity), Mean ([2]; 1 H after i.v. administration): 2.97 % ID/g | Concentration of radioactivity, brain, Mean ([2]; 1 H after i.v. administration): 4.37 % ID/g | Concentration of radioactivity, kidney, Mean ([2]; 1 H after i.v. administration): 13.30 % ID/g | Concentration of radioactivity, liver, Mean ([2]; 1 H after i.v. administration): 9.46 % ID/g | Concentration of radioactivity, lungs, Mean ([2]; 1 H after i.v. administration): 11.82 % ID/g | Concentration of radioactivity, muscle (skeletal muscle), Mean ([2]; 1 H after i.v. administration): 1.92 % ID/g | Concentration of radioactivity, pancreas, Mean ([2]; 1 H after i.v. administration): 10.18 % ID/g | Concentration of radioactivity, spleen, Mean ([2]; 1 H after i.v. administration): 9.70 % ID/g | Concentration of radioactivity, uvea (pigmented tissues of the eye), Mean ([2]; 1 H after i.v. administration): 13.21 % ID/g | Concentration of radioactivity, B 16 (tumour), Mean ([2]; 3 H after i.v. administration): 11.38 % ID/g | Concentration of radioactivity, Ic (intestinal contents), Mean ([2]; 3 H after i.v. administration): 25.85 % ID/g | Concentration of radioactivity, Sc (stomach contents), Mean ([2]; 3 H after i.v. administration): 24.69 % ID/g | Concentration of radioactivity, blood (measured in the heart cavity), Mean ([2]; 3 H after i.v. administration): 1.77 % ID/g | Concentration of radioactivity, brain, Mean ([2]; 3 H after i.v. administration): 0.78 % ID/g | Concentration of radioactivity, kidney, Mean ([2]; 3 H after i.v. administration): 5.65 % ID/g | Concentration of radioactivity, liver, Mean ([2]; 3 H after i.v. administration): 4.75 % ID/g | Concentration of radioactivity, lungs, Mean ([2]; 3 H after i.v. administration): 4.43 % ID/g | Concentration of radioactivity, muscle (skeletal muscle), Mean ([2]; 3 H after i.v. administration): 0.83 % ID/g | Concentration of radioactivity, pancreas, Mean ([2]; 3 H after i.v. administration): 8.19 % ID/g | Concentration of radioactivity, spleen, Mean ([2]; 3 H after i.v. administration): 2.59 % ID/g | Concentration of radioactivity, uvea (pigmented tissues of the eye), Mean ([2]; 3 H after i.v. administration): 13.90 % ID/g | Concentration of radioactivity, B 16 (tumour), Mean ([2]; 6 H after i.v. administration): 8.95 % ID/g | Concentration of radioactivity, Ic (intestinal contents), Mean ([2]; 6 H after i.v. administration): 18.72 % ID/g | Concentration of radioactivity, Sc (stomach contents), Mean ([2]; 6 H after i.v. administration): 10.79 % ID/g | Concentration of radioactivity, blood (measured in the heart cavity), Mean ([2]; 6 H after i.v. administration): 1.74 % ID/g | Concentration of radioactivity, brain, Mean ([2]; 6 H after i.v. administration): 0.25 % ID/g | Concentration of radioactivity, kidney, Mean ([2]; 6 H after i.v. administration): 3.07 % ID/g | Concentration of radioactivity, liver, Mean ([2]; 6 H after i.v. administration): 2.73 % ID/g | Concentration of radioactivity, lungs, Mean ([2]; 6 H after i.v. administration): 2.12 % ID/g | Concentration of radioactivity, muscle (skeletal muscle), Mean ([2]; 6 H after i.v. administration): 0.38 % ID/g | Concentration of radioactivity, spleen, Mean ([2]; 6 H after i.v. administration): 8.05 % ID/g | Concentration of radioactivity, uvea (pigmented tissues of the eye), Mean ([2]; 6 H after i.v. administration): 12.76 % ID/g | Concentration of radioactivity, B 16 (tumour), Mean ([2]; 24 H after i.v. administration): 6.97 % ID/g | Concentration of radioactivity, Ic (intestinal contents), Mean ([2]; 24 H after i.v. administration): 3.03 % ID/g | Concentration of radioactivity, Sc (stomach contents), Mean ([2]; 24 H after i.v. administration): 3.10 % ID/g | Concentration of radioactivity, uvea (pigmented tissues of the eye), Mean ([2]; 24 H after i.v. administration): 12.28 % ID/g | Concentration of radioactivity, B 16 (tumour), Mean ([2]; 72 H after i.v. administration): 1.52 % ID/g | Concentration of radioactivity, uvea (pigmented tissues of the eye), Mean ([2]; 72 H after i.v. administration): 7.84 % ID/g

CCN(CC)CCNC(=O)c1cc2c(I)cccc2cn1 [compound 39, N-(2-diethylaminoethyl)-5-iodoisoquinoline-3-carboxamide dihydrochloride]
Effective period (tumour): 43.6 h | Biological period (tumour): 56.3 hours | Faecal elimination 0-72 hours (Faeces) [1]: 21.2% | Urinary and faecal elimination 0-72 hours (Total) [1]: 71.1% | Urinary elimination 0-72 hours (Urine) [1]: 49.9% | Biodistribution, Mean, B 16 ([2]; 1 H): 7.27 | Biodistribution, Mean, B 16 ([2]; 3 H): 7.12 | Biodistribution, Mean, B 16 ([2]; 6 H): 7.92 | Biodistribution, Mean, B 16 ([2]; 24 H): 7.05 | Biodistribution, Mean, B 16 ([2]; 72 H): 3.13 | Biodistribution, Mean, Ic ([2]; 1 H): 42.97 | Biodistribution, Mean, Ic ([2]; 3 H): 68.64 | Biodistribution, Mean, Ic ([2]; 6 H): 29.16 | Biodistribution, Mean, Ic ([2]; 24 H): 1.70 | Biodistribution, Mean, Sc ([2]; 1 H): 23.01 | Biodistribution, Mean, Sc ([2]; 3 H): 19.05 | Biodistribution, Mean, Sc ([2]; 6 H): 28.44 | Biodistribution, Mean, Sc ([2]; 24 H): 0.75 | Biodistribution, Mean, blood ([2]; 1 H): 2.15 | Biodistribution, Mean, blood ([2]; 3 H): 2.65 | Biodistribution, Mean, blood ([2]; 6 H): 2.17 | Biodistribution, Mean, brain ([2]; 1 H): 0.30 | Biodistribution, Mean, brain ([2]; 3 H): 0.09 | Biodistribution, Mean, kidney ([2]; 1 H): 4.62 | Biodistribution, Mean, kidney ([2]; 3 H): 2.66 | Biodistribution, Mean, kidney ([2]; 6 H): 2.11 | Biodistribution, Mean, liver ([2]; 1 H): 3.86 | Biodistribution, Mean, liver ([2]; 3 H): 2.02 | Biodistribution, Mean, liver ([2]; 6 H): 1.54 | Biodistribution, Mean, liver ([2]; 24 H): 0.43 | Biodistribution, Mean, lungs ([2]; 1 H): 3.68 | Biodistribution, Mean, lungs ([2]; 3 H): 2.76 | Biodistribution, Mean, lungs ([2]; 6 H): 2.05 | Biodistribution, Mean, muscle ([2]; 1 H): 0.74 | Biodistribution, Mean, muscle ([2]; 3 H): 0.43 | Biodistribution, Mean, pancreas ([2]; pancreas, 1 H): 2.39 | Biodistribution, Mean, spleen ([2]; 1 H): 2.83 | Biodistribution, Mean, spleen ([2]; 72 H): 1.62 | Biodistribution, Mean, thyroid ([2]; 1 H): 16.88 | Biodistribution, Mean, thyroid ([2]; 3 H): 35.71 | Biodistribution, Mean, thyroid ([2]; 6 H): 48.93 | Biodistribution, Mean, thyroid ([2]; 24 H): 88.65 | Biodistribution, Mean, thyroid ([2]; 72 H): 132.79 | Biodistribution, Mean, uvea ([2]; 1 H): 18.08 | Biodistribution, Mean, uvea ([2]; 3 H): 13.87 | Biodistribution, Mean, uvea ([2]; 6 H): 18.02 | Biodistribution, Mean, uvea ([2]; 24 H): 14.55 | Biodistribution, Mean, uvea ([2]; 72 H): 9.73
